Results published in PubChem BioAssay (NCI).
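Five compound concentrations were applied to cells in 96-well plates for 48 hours; endpoints were derived by simple linear interpolation of the resulting dose-response curve. Abbreviation: GI50, concentration required for 50% inhibition of growth. TGI: concentration producing complete growth inhibition.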

Columns and labels:
Test in all cases: NCI anticancer screen, dose series, 48 h
T-47D breast = system: T-47D breast
SF-539 CNS = system: SF-539 CNS
HS 578T breast = system: HS 578T breast
SNB-75 CNS = system: SNB-75 CNS
SR leukemia = system: SR leukemia
SNB-19 CNS = system: SNB-19 CNS
MALME-3M melanoma = system: MALME-3M melanoma
NCI-H460 lung = system: NCI-H460 lung
K-562 leukemia = system: K-562 leukemia
MDA-MB-231 breast = system: MDA-MB-231 breast
M14 melanoma = system: M14 melanoma
HT29 colon = system: HT29 colon
CAKI-1 renal = system: CAKI-1 renal
ACHN renal = system: ACHN renal
PC-3 prostate = system: PC-3 prostate
MCF7 breast = system: MCF7 breast
LOX IMVI melanoma = system: LOX IMVI melanoma
SW-620 colon = system: SW-620 colon
SK-MEL-2 melanoma = system: SK-MEL-2 melanoma
UO-31 renal = system: UO-31 renal
OVCAR-4 ovarian = system: OVCAR-4 ovarian
MDA-N = system: MDA-N
OVCAR-8 ovarian = system: OVCAR-8 ovarian
NCI-H226 lung = system: NCI-H226 lung
OVCAR-5 ovarian = system: OVCAR-5 ovarian
SK-MEL-28 melanoma = system: SK-MEL-28 melanoma
RPMI-8226 leukemia = system: RPMI-8226 leukemia
SK-OV-3 ovarian = system: SK-OV-3 ovarian
HOP-62 NSCLC = system: HOP-62 NSCLC
COLO 205 colon = system: COLO 205 colon
KM12 colon = system: KM12 colon
UACC-257 melanoma = system: UACC-257 melanoma
NCI-H522 lung = system: NCI-H522 lung
EKVX NSCLC = system: EKVX NSCLC
OVCAR-3 ovarian = system: OVCAR-3 ovarian
HCT-116 colon = system: HCT-116 colon
A549 NSCLC = system: A549 NSCLC
IGROV1 ovarian = system: IGROV1 ovarian
SF-268 CNS = system: SF-268 CNS
786-0 renal = system: 786-0 renal
TK-10 renal = system: TK-10 renal
SK-MEL-5 melanoma = system: SK-MEL-5 melanoma
U251 CNS = system: U251 CNS
HCT-15 colon = system: HCT-15 colon
UACC-62 melanoma = system: UACC-62 melanoma
BT-549 breast = system: BT-549 breast
HCC-2998 colon = system: HCC-2998 colon
SN12C renal = system: SN12C renal
DU-145 prostate = system: DU-145 prostate
HL-60(TB) leukemia = system: HL-60(TB) leukemia
CCRF-CEM leukemia = system: CCRF-CEM leukemia
NCI-H23 lung = system: NCI-H23 lung
SF-295 CNS = system: SF-295 CNS
A498 renal = system: A498 renal
MDA-MB-435 = system: MDA-MB-435
NCI/ADR-RES ovarian = system: NCI/ADR-RES ovarian
MOLT-4 leukemia = system: MOLT-4 leukemia
RXF 393 renal = system: RXF 393 renal
HOP-92 NSCLC = system: HOP-92 NSCLC

Compound `CCOC(=O)C1(Cc2ccc3c(c2)CCC3)Cc2cc3c(cc2C1=O)CCC3` (configuration not stated) has a TGI (T-47D breast) greater than 100 µM, a TGI (SF-539 CNS) greater than 100 µM and a TGI (HS 578T breast) greater than 100 µM. It also gave a TGI (SNB-75 CNS) greater than 100 µM, a TGI (SR leukemia) greater than 100 µM and a TGI (SNB-19 CNS) greater than 100 µM. It also gave a TGI (MALME-3M melanoma) greater than 100 µM, a TGI (NCI-H460 lung) greater than 100 µM and a TGI (K-562 leukemia) greater than 100 µM. The TGI (MDA-MB-231 breast) was greater than 100 µM, the TGI (M14 melanoma) was greater than 100 µM and the TGI (HT29 colon) was greater than 100 µM. For the same compound, the TGI (CAKI-1 renal) was greater than 100 µM, the TGI (ACHN renal) was greater than 100 µM and the TGI (PC-3 prostate) was greater than 100 µM. It also gave a TGI (MCF7 breast) greater than 100 µM, a TGI (LOX IMVI melanoma) greater than 100 µM and a TGI (SW-620 colon) greater than 100 µM. It also gave a TGI (SK-MEL-2 melanoma) greater than 100 µM, a TGI (UO-31 renal) greater than 100 µM and a TGI (OVCAR-4 ovarian) greater than 100 µM. For the same compound, the TGI (MDA-N) was greater than 100 µM, the TGI (OVCAR-8 ovarian) was greater than 100 µM and the TGI (NCI-H226 lung) was greater than 100 µM. It also gave a TGI (OVCAR-5 ovarian) greater than 100 µM, a TGI (SK-MEL-28 melanoma) greater than 100 µM and a TGI (RPMI-8226 leukemia) greater than 100 µM. The TGI (SK-OV-3 ovarian) was greater than 100 µM, the TGI (HOP-62 NSCLC) was greater than 100 µM and the TGI (COLO 205 colon) was greater than 100 µM. The TGI (KM12 colon) was greater than 100 µM, the TGI (UACC-257 melanoma) was greater than 100 µM and the TGI (NCI-H522 lung) was greater than 100 µM. It also gave a TGI (EKVX NSCLC) greater than 100 µM, a TGI (OVCAR-3 ovarian) greater than 100 µM and a TGI (HCT-116 colon) greater than 100 µM. The TGI (A549 NSCLC) was greater than 100 µM, the TGI (IGROV1 ovarian) was greater than 100 µM and the TGI (SF-268 CNS) was greater than 100 µM. For the same compound, the TGI (786-0 renal) was greater than 100 µM, the TGI (TK-10 renal) was greater than 100 µM and the TGI (SK-MEL-5 melanoma) was greater than 100 µM. For the same compound, the TGI (U251 CNS) was greater than 100 µM, the TGI (HCT-15 colon) was greater than 100 µM and the TGI (UACC-62 melanoma) was greater than 100 µM. For the same compound, the TGI (BT-549 breast) was greater than 100 µM, the TGI (HCC-2998 colon) was greater than 100 µM and the TGI (SN12C renal) was greater than 100 µM. The TGI (DU-145 prostate) was greater than 100 µM, the TGI (HL-60(TB) leukemia) was 7.07 µM and the TGI (CCRF-CEM leukemia) was greater than 100 µM. It also gave a TGI (NCI-H23 lung) greater than 100 µM, a TGI (SF-295 CNS) greater than 100 µM and a TGI (A498 renal) greater than 78.7 µM. It also gave a TGI (MDA-MB-435) greater than 100 µM, a TGI (NCI/ADR-RES ovarian) greater than 100 µM and a TGI (MOLT-4 leukemia) greater than 100 µM.

Compound `CN1CCCC1c1cccnc1.O=C(O)c1ccccc1O.O=C([O-])c1ccccc1[OH2+].O=C([O-])c1ccccc1[OH2+].O=C([O-])c1ccccc1[OH2+].[Cu+2]` (configuration not stated) has a GI50 (T-47D breast) greater than 100 µM, a TGI (T-47D breast) greater than 100 µM and a GI50 (HS 578T breast) greater than 100 µM. The TGI (HS 578T breast) was greater than 100 µM, the GI50 (SNB-75 CNS) was greater than 100 µM and the TGI (SNB-75 CNS) was greater than 100 µM. For the same compound, the GI50 (SNB-19 CNS) was 39.6 µM, the TGI (SNB-19 CNS) was greater than 100 µM and the GI50 (MALME-3M melanoma) was greater than 100 µM. The TGI (MALME-3M melanoma) was greater than 100 µM, the GI50 (K-562 leukemia) was greater than 100 µM and the TGI (K-562 leukemia) was greater than 100 µM. For the same compound, the GI50 (MDA-MB-231 breast) was greater than 100 µM, the TGI (MDA-MB-231 breast) was greater than 100 µM and the GI50 (M14 melanoma) was greater than 100 µM. For the same compound, the TGI (M14 melanoma) was greater than 100 µM, the GI50 (HT29 colon) was greater than 100 µM and the TGI (HT29 colon) was greater than 100 µM. For the same compound, the GI50 (CAKI-1 renal) was greater than 100 µM, the TGI (CAKI-1 renal) was greater than 100 µM and the GI50 (ACHN renal) was greater than 100 µM. The TGI (ACHN renal) was greater than 100 µM, the GI50 (PC-3 prostate) was greater than 100 µM and the TGI (PC-3 prostate) was greater than 100 µM. For the same compound, the GI50 (MCF7 breast) was 45.3 µM, the TGI (MCF7 breast) was greater than 100 µM and the GI50 (LOX IMVI melanoma) was greater than 100 µM. The TGI (LOX IMVI melanoma) was greater than 100 µM, the GI50 (SW-620 colon) was greater than 100 µM and the TGI (SW-620 colon) was greater than 100 µM. The GI50 (SK-MEL-2 melanoma) was greater than 100 µM, the TGI (SK-MEL-2 melanoma) was greater than 100 µM and the GI50 (UO-31 renal) was greater than 100 µM. For the same compound, the TGI (UO-31 renal) was greater than 100 µM, the GI50 (OVCAR-4 ovarian) was 56.1 µM and the TGI (OVCAR-4 ovarian) was greater than 100 µM. For the same compound, the GI50 (MDA-N) was greater than 100 µM, the TGI (MDA-N) was greater than 100 µM and the GI50 (OVCAR-8 ovarian) was greater than 100 µM. The TGI (OVCAR-8 ovarian) was greater than 100 µM, the GI50 (NCI-H226 lung) was greater than 100 µM and the TGI (NCI-H226 lung) was greater than 100 µM. For the same compound, the GI50 (OVCAR-5 ovarian) was greater than 100 µM, the TGI (OVCAR-5 ovarian) was greater than 100 µM and the GI50 (SK-MEL-28 melanoma) was greater than 100 µM. It also gave a TGI (SK-MEL-28 melanoma) greater than 100 µM, a GI50 (RPMI-8226 leukemia) greater than 100 µM and a TGI (RPMI-8226 leukemia) greater than 100 µM. The GI50 (SK-OV-3 ovarian) was greater than 100 µM, the TGI (SK-OV-3 ovarian) was greater than 100 µM and the GI50 (HOP-62 NSCLC) was greater than 100 µM. It also gave a TGI (HOP-62 NSCLC) greater than 100 µM, a GI50 (COLO 205 colon) greater than 100 µM and a TGI (COLO 205 colon) greater than 100 µM. The GI50 (KM12 colon) was greater than 100 µM, the TGI (KM12 colon) was greater than 100 µM and the GI50 (UACC-257 melanoma) was greater than 100 µM. The TGI (UACC-257 melanoma) was greater than 100 µM, the GI50 (NCI-H522 lung) was greater than 100 µM and the TGI (NCI-H522 lung) was greater than 100 µM. The GI50 (EKVX NSCLC) was greater than 100 µM, the TGI (EKVX NSCLC) was greater than 100 µM and the GI50 (OVCAR-3 ovarian) was greater than 100 µM. The TGI (OVCAR-3 ovarian) was greater than 100 µM, the GI50 (HCT-116 colon) was greater than 100 µM and the TGI (HCT-116 colon) was greater than 100 µM. For the same compound, the GI50 (A549 NSCLC) was 78.9 µM, the TGI (A549 NSCLC) was greater than 100 µM and the GI50 (IGROV1 ovarian) was 91.1 µM. The TGI (IGROV1 ovarian) was greater than 100 µM, the GI50 (SF-268 CNS) was greater than 100 µM and the TGI (SF-268 CNS) was greater than 100 µM. The GI50 (786-0 renal) was greater than 100 µM, the TGI (786-0 renal) was greater than 100 µM and the GI50 (TK-10 renal) was greater than 100 µM. It also gave a TGI (TK-10 renal) greater than 100 µM, a GI50 (SK-MEL-5 melanoma) of 33.3 µM and a TGI (SK-MEL-5 melanoma) greater than 100 µM. It also gave a GI50 (RXF 393 renal) greater than 100 µM, a TGI (RXF 393 renal) greater than 100 µM and a GI50 (U251 CNS) greater than 100 µM. The TGI (U251 CNS) was greater than 100 µM, the GI50 (HCT-15 colon) was greater than 100 µM and the TGI (HCT-15 colon) was greater than 100 µM. For the same compound, the GI50 (UACC-62 melanoma) was greater than 100 µM, the TGI (UACC-62 melanoma) was greater than 100 µM and the GI50 (BT-549 breast) was greater than 100 µM. The TGI (BT-549 breast) was greater than 100 µM, the GI50 (SN12C renal) was greater than 100 µM and the TGI (SN12C renal) was greater than 100 µM. For the same compound, the GI50 (DU-145 prostate) was greater than 100 µM, the TGI (DU-145 prostate) was greater than 100 µM and the GI50 (HL-60(TB) leukemia) was greater than 100 µM. For the same compound, the TGI (HL-60(TB) leukemia) was greater than 100 µM, the GI50 (CCRF-CEM leukemia) was greater than 100 µM and the TGI (CCRF-CEM leukemia) was greater than 100 µM. The GI50 (NCI-H23 lung) was greater than 100 µM, the TGI (NCI-H23 lung) was greater than 100 µM and the GI50 (SF-295 CNS) was greater than 100 µM. The TGI (SF-295 CNS) was greater than 100 µM, the GI50 (A498 renal) was 31.3 µM and the TGI (A498 renal) was 76.1 µM. The GI50 (MDA-MB-435) was greater than 100 µM, the TGI (MDA-MB-435) was greater than 100 µM and the GI50 (NCI/ADR-RES ovarian) was greater than 100 µM. The TGI (NCI/ADR-RES ovarian) was greater than 100 µM, the GI50 (HOP-92 NSCLC) was greater than 100 µM and the TGI (HOP-92 NSCLC) was greater than 100 µM. For the same compound, the GI50 (MOLT-4 leukemia) was greater than 100 µM and the TGI (MOLT-4 leukemia) was greater than 100 µM.
